The text below walks through data of ChEMBL document CHEMBL1156216, “Amide-based inhibitors of p38alpha MAP kinase. Part 2: design, synthesis and SAR of potent N-pyrimidyl amides” (Bioorg Med Chem Lett, 2010).

Assay [1] deals with Mitogen-activated protein kinase 14 (Homo sapiens, UniProt Q16539). Put plainly: Inhibition of human p38alpha assessed as gamma-[32P]ATP incorporation after 60 mins by scintillation counting.
In another assay the test system is Blood. As to the kind of experiment: Antiinflammatory activity against LPS-induced TNFalpha production in human diluted whole blood administered 15 mins before LPS treatment after 2 hrs by ELISA. It counts as functional, tissue-based.
Another assay has as its target Cytochrome P450 3A4 (Homo sapiens, UniProt P08684). As to the kind of experiment: Inhibition of CYP3A4 after 30 mins by fluorescence assay. It counts as ADME. The settings on record: read-out: INH.

Chain of Mitogen-activated protein kinase 14 (Q16539 whole entry): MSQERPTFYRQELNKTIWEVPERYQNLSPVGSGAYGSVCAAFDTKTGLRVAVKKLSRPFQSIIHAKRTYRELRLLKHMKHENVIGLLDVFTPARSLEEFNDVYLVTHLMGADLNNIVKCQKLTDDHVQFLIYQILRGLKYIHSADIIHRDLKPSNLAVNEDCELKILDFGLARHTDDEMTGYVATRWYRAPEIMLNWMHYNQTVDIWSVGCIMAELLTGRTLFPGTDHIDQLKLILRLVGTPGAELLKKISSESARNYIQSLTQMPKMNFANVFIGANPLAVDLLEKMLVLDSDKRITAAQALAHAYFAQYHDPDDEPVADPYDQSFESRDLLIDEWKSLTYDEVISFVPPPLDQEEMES
Chain of Cytochrome P450 3A4 (P08684 whole entry): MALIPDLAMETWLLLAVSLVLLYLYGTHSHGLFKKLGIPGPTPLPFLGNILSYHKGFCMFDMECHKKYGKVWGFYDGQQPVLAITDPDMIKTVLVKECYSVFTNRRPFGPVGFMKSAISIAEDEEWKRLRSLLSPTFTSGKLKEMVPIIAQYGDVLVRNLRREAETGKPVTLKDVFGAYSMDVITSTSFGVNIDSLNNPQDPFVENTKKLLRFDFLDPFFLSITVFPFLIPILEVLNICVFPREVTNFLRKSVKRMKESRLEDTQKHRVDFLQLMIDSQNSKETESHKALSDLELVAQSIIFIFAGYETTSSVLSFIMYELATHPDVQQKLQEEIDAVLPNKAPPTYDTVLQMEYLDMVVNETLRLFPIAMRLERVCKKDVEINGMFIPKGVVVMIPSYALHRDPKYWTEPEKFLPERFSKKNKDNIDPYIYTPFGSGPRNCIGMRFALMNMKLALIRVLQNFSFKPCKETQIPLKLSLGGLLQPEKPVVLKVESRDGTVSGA

As to `CC(C)Nc1nccc(N(CCCCN)C(=O)c2ccc3c(c2)CCO3)n1`, the figures for the IC50 (in assay [1]; in the assay with Blood; on Cytochrome P450 3A4) were 17 nM, 90 nM and 3120 nM, respectively.

With `C[C@H](Nc1nccc(N(CC2CCNCC2)C(=O)c2ccc3c(c2)CCO3)n1)c1ccccc1`, the figures for the IC50 (in assay [1]; in the assay with Blood; at Cytochrome P450 3A4) were 54 nM, 15 nM and 94 nM, respectively.

As to `C[C@H](Nc1nccc(N(CC2CCCNC2)C(=O)c2ccc3c(c2)CCO3)n1)c1ccccc1` (stereo partly drawn), the IC50 in assay [1] was more than 10000 nM.

As to `C[C@H](Nc1nccc(N(CC2CCN(C(N)=O)CC2)C(=O)c2ccc3c(c2)CCO3)n1)c1ccccc1`, the figures for the IC50 (in assay [1]; in the assay on Blood) were 711 nM and 524 nM, respectively.

`CC(C)CN(C(=O)c1ccc2c(c1)CCO2)c1ccnc(N[C@@H](C)c2ccccc2)n1`: the values for the IC50 (in assay [1]; with Blood) were 462 nM and 2090 nM, respectively.

Take `C[C@H](Nc1nccc(N(CC2CC2)C(=O)c2ccc3c(c2)CCO3)n1)c1ccccc1`: the IC50 in assay [1] came out at 165 nM; in the assay with Blood it was 704 nM.

Consider `COCCN(C(=O)c1ccc2c(c1)CCO2)c1ccnc(N[C@@H](C)c2ccccc2)n1`, for which the IC50 was 345 nM in assay [1] and more than 10000 nM in the assay on Blood.

For the molecule `C[C@H](Nc1nccc(N(CC2CCOCC2)C(=O)c2ccc3c(c2)CCO3)n1)c1ccccc1`, the IC50 was 158 nM in assay [1] and more than 10000 nM with Blood.

Turning to `CCN(C(=O)c1ccc(F)c(C)c1)c1ccnc(N[C@@H](C)c2ccccc2)n1`, the IC50 in assay [1] is 39 nM; in the assay on Blood, 178 nM.

As to `CCN(C(=O)c1cc(C)ccc1F)c1ccnc(N[C@@H](C)c2ccccc2)n1`, the figures for the IC50 (in assay [1]; in the assay with Blood) were 26 nM and 58 nM, respectively.

Take `O=C(c1ccc2c(c1)CCO2)N(CC1CCNCC1)c1ccnc(NC2CCC(O)CC2)n1` (stereo not drawn): the figures for the IC50 (in assay [1]; in the assay on Blood; at Cytochrome P450 3A4) were 360 nM, 3290 nM and more than 20000 nM, respectively.

Take `NC1CCC(Nc2nccc(N(CC3CCNCC3)C(=O)c3ccc4c(c3)CCO4)n2)CC1` (stereo not drawn): the IC50 in assay [1] was 400 nM; in the assay with Blood, more than 10000 nM; at Cytochrome P450 3A4, more than 20000 nM.

As for `CCN(C(=O)c1cn(C)c2ccccc12)c1ccnc(N[C@@H](C)c2ccccc2)n1`, the results for the IC50 (in assay [1]; in the assay on Blood) were 154 nM and more than 10000 nM, respectively.

With `CCN(C(=O)c1cc2ccccc2o1)c1ccnc(N[C@@H](C)c2ccccc2)n1`, the IC50 in assay [1] was 179 nM; in the assay on Blood it was more than 10000 nM.

Consider `CCN(C(=O)c1ccc2ccccc2c1)c1ccnc(N[C@@H](C)c2ccccc2)c1`, for which, in the assay on Blood, the IC50 was more than 1000 nM.

In the case of `CCN(C(=O)c1cccc2c1OCC2)c1ccnc(N[C@@H](C)c2ccccc2)n1`, the results for the IC50 (in assay [1]; in the assay on Blood) were 90 nM and 829 nM, respectively.

For the molecule `CCN(C(=O)c1ccc2c(c1)CCC2)c1ccnc(N[C@@H](C)c2ccccc2)n1`, the IC50 in assay [1] was 45 nM; with Blood it was 300 nM.

For the molecule `COC[C@H](C)Nc1nccc(N(CC2CCNCC2)C(=O)c2ccc3c(c2)CCO3)n1`, the results for the IC50 (in assay [1]; in the assay on Blood; on Cytochrome P450 3A4) were 316 nM, 460 nM and 2020 nM, respectively.

Take `C[C@@H](CO)Nc1nccc(N(CCCCN)C(=O)c2ccc3c(c2)CCO3)n1`: the figures for the IC50 (in assay [1]; in the assay with Blood; at Cytochrome P450 3A4) were 310 nM, 2940 nM and 11700 nM, respectively.

On to `NCCCCN(C(=O)c1ccc2c(c1)CCO2)c1ccnc(NC2CCC(O)CC2)n1` (stereo not drawn), for which the figures for the IC50 (in assay [1]; in the assay on Blood; on Cytochrome P450 3A4) were 11 nM, 865 nM and more than 20000 nM, respectively.

In the case of `COC[C@H](C)Nc1nccc(N(CCCCN)C(=O)c2ccc3c(c2)CCO3)n1`, the IC50 in assay [1] worked out at 25 nM; with Blood it was 48 nM; on Cytochrome P450 3A4 it was 2650 nM.

For the molecule `CC(C)(CO)Nc1nccc(N(CC2CCNCC2)C(=O)c2ccc3c(c2)CCO3)n1`, the IC50 was 3040 nM in assay [1], more than 10000 nM in the assay with Blood and 1540 nM on Cytochrome P450 3A4.

Regarding `CCC(COC)Nc1nccc(N(CC2CCNCC2)C(=O)c2ccc3c(c2)CCO3)n1` (stereo not drawn), the IC50 stood at 530 nM in assay [1], 112 nM with Blood and 367 nM at Cytochrome P450 3A4.

For the molecule `O=C(c1ccc2c(c1)CCO2)N(CC1CCNCC1)c1ccnc(NC2CC2)n1`, the IC50 in assay [1] worked out at 600 nM; in the assay with Blood, 50 nM; on Cytochrome P450 3A4, 340 nM.

In the case of `CCN(C(=O)c1ccc2c(c1)CCCC2)c1ccnc(N[C@@H](C)c2ccccc2)n1`, the IC50 in assay [1] was 180 nM; in the assay on Blood, more than 1000 nM.

As to `CCN(C(=O)c1cccc(Cl)c1)c1ccnc(N[C@@H](C)c2ccccc2)n1`, the IC50 was determined as 81 nM in assay [1] and 533 nM with Blood.

On to `CCN(C(=O)c1ccc(Cl)cc1)c1ccnc(N[C@@H](C)c2ccccc2)n1`, for which the results for the IC50 (in assay [1]; in the assay on Blood) were 313 nM and more than 10000 nM, respectively.

`CCN(C(=O)c1cccc(C)c1)c1ccnc(N[C@@H](C)c2ccccc2)n1`: the IC50 stood at 13 nM in assay [1] and 140 nM in the assay on Blood.

Take `CCN(C(=O)c1ccc(C)c(C)c1)c1ccnc(N[C@@H](C)c2ccccc2)n1`: the IC50 turned out to be 91 nM in assay [1] and 143 nM in the assay on Blood.

`CCN(C(=O)c1cccc(C)c1C)c1ccnc(N[C@@H](C)c2ccccc2)n1`: the IC50 in assay [1] stood at 81 nM; with Blood it was 400 nM.

Consider `CCc1cccc(C(=O)N(CC)c2ccnc(N[C@@H](C)c3ccccc3)n2)c1`, for which the IC50 in assay [1] is 65 nM; in the assay on Blood, 152 nM.

Take `CCN(C(=O)c1cccc(C2CC2)c1)c1ccnc(N[C@@H](C)c2ccccc2)n1`: the IC50 in assay [1] was 104 nM; in the assay on Blood, 349 nM.

For `CCN(C(=O)c1ccc2c(c1)OCO2)c1ccnc(N[C@@H](C)c2ccccc2)n1`, the figures for the IC50 (in assay [1]; with Blood) were 164 nM and more than 1000 nM, respectively.

`CCN(C(=O)c1ccccc1)c1ccnc(N[C@@H](C)c2ccccc2)n1`: the IC50 in assay [1] is 193 nM; in the assay with Blood it was more than 10000 nM.

As for `CCN(C(=O)c1ccccc1Cl)c1ccnc(N[C@@H](C)c2ccccc2)n1`, the IC50 in assay [1] was 267 nM; in the assay with Blood, more than 1000 nM.

`CCN(C(=O)c1ccc2ccccc2c1)c1ccnc(N[C@@H](C)c2ccccc2)n1`: the IC50 in assay [1] is 64 nM; with Blood, 187 nM.

In the case of `CCN(C(=O)c1ccc2c(c1)CCO2)c1ccnc(N[C@@H](C)c2ccccc2)n1`, the figures for the IC50 (in assay [1]; in the assay on Blood) were 17 nM and 387 nM, respectively.

For `CCN(C(=O)c1csc2ccccc12)c1ccnc(N[C@@H](C)c2ccccc2)n1`, the IC50 in assay [1] is 188 nM; with Blood it was more than 1000 nM.

On to `CCN(C(=O)c1ccc2occc2c1)c1ccnc(N[C@@H](C)c2ccccc2)n1`, for which the values for the IC50 (in assay [1]; with Blood) were 71 nM and 313 nM, respectively.

For `CCN(C(=O)c1cccc(C(F)(F)F)c1)c1ccnc(N[C@@H](C)c2ccccc2)n1`, the IC50 is 64 nM in assay [1] and more than 1000 nM in the assay with Blood.

For the molecule `C[C@H](Nc1nccc(N(CC2CCN(S(N)(=O)=O)CC2)C(=O)c2ccc3c(c2)CCO3)n1)c1ccccc1`, the figures for the IC50 (in assay [1]; in the assay with Blood) were 673 nM and more than 10000 nM, respectively.

As to `C[C@H](Nc1nccc(N(CCCN)C(=O)c2ccc3c(c2)CCO3)n1)c1ccccc1`, the IC50 in assay [1] was more than 10000 nM.

Consider `C[C@H](Nc1nccc(N(CCCCN)C(=O)c2ccc3c(c2)CCO3)n1)c1ccccc1`, for which the values for the IC50 (in assay [1]; in the assay with Blood; at Cytochrome P450 3A4) were 4 nM, 9 nM and 180 nM, respectively.

Turning to `C[C@H](Nc1nccc(N(CCCCO)C(=O)c2ccc3c(c2)CCO3)n1)c1ccccc1`, the values for the IC50 (in assay [1]; with Blood) were 96 nM and 130 nM, respectively.

`C[C@H](Nc1nccc(N(CC2CCCCN2)C(=O)c2ccc3c(c2)CCO3)n1)c1ccccc1` (stereo partly drawn): the IC50 in assay [1] is more than 10000 nM.

Take `C[C@H](Nc1nccc(N(CCCS(C)(=O)=O)C(=O)c2ccc3c(c2)CCO3)n1)c1ccccc1`: the IC50 in assay [1] amounted to 72 nM; in the assay with Blood, 564 nM.

With `CC(C)Nc1nccc(N(CC2CCNCC2)C(=O)c2ccc3c(c2)CCO3)n1`, the figures for the IC50 (in assay [1]; in the assay on Blood; on Cytochrome P450 3A4) were 24 nM, 88 nM and 2900 nM, respectively.
